Measured values reported in patent US7795505B2, “Herbicide-resistance gene and utilization thereof” (Hokko Chemical Industry Co., Ltd., priority 2004, dated 2010).

How the values were obtained:
[1] = system: CP(=O)(O)CC[C@H](N)C(=O)O; test: cells, lysate or membranes named; details: other: substrate specificity; crude enzyme, vector pUC19-SH (control); pH 8.0
Experimental: (§1) Escherichia coli transformed with pUC18-B2 having the herbicide-resistance gene of the present invention was inoculated into a liquid medium containing 50 ml of LB medium and 50 mg/L ampicillin, and cultured at 37° C. for 1 hour, and 50 μl of a 1 M thiogalactopyranoside solution was added to the culture solution, followed by culture at 37° C. for 3 hours. After completion of the culture, the culture solution was centrifuged at 5,000 rpm for 15 minutes to collect bacterial cells, and the cells were washed once with physiological saline. Then, the washed bacterial cells were suspended in 2 ml of a 20 mM Trisbuffer (pH 8.0) solution and disrupted by ultrasonic waves at 4° C. The solution was centrifuged at 15,000 rpm for 15 minutes to collect the supernatant. The supernatant was diluted 10-fold with 20 mM Tris buffer (pH 8.0) to prepare a crude enzyme solution. Then, 2 μl of the crude solution was added to 98 μl of a reaction solution, and the mixture was allowed to react at 28° C. for 1 hour, followed by measurement of the absorbance at 412 nm to measure the acetylation reaction. […]
(§2) The optimum pH and substrate specificity (Km value) to PPT and a structural homologue thereof, methionine sulfone (MS) were measured, and the results are shown in Table 2.

[2] = system: enzyme capable of acetylating PPT of Streptomyces sp. AB3534 strain (pUC18-B2); test: Acetylation reaction with crude enzyme solution from E. coli transformed with pUC18-B2 (absorbance at 412 nm); format: biochemical; details: substrate specificity, vector pUC18-B2 (present invention)
Experimental: as §1, §2

[3] = system: enzyme capable of acetylating PPT derived from actinomycete AB2253 strain (pUC19-AB); test: Acetylation reaction with crude enzyme solution from E. coli transformed with pUC19-AB; format: biochemical; details: substrate specificity, vector pUC19-AB (control)
Experimental: as §1, §2

[4] = system: Escherichia coli transformed with pUC18-B1; test: Growth on M9 agar medium containing bialaphos; format: cell-based; details: 1 mM IPTG, 10 mg/L bialaphos
Experimental: The about 1.2-kb EcoRI-BglII fragment that had been confirmed to have a bialaphos-resistance gene was ligated to the EcoRI-BamHI site of a commercially available plasmid vector pUC18, and the resultant plasmid was introduced into Escherichia coli, to thereby yield a transformed Escherichia coli strain having a resistance to bialaphos. A deletion plasmid was prepared by using the SmaI site in the about 1.2-kb EcoRI, BglII fragment and was used to transform Escherichia coli, and as a result, the herbicide-resistance gene of the present invention was confirmed to be present on an about 0.6-kb EcoRI-SmaI fragment. 2 μg of the hybrid plasmid pBRB1 was cleaved with restriction enzymes EcoRI and BglII (20 units each) at 37° C. for 2 hours and subjected to agarose electrophoresis, and only a 1.2 kb-fragment was cut and purified using GeneClean. On the other hand, 2 μg of the plasmid pUC18 was cleaved with EcoRI and BamHI (20 units each) at 37° C. for 2 hours, and the fragments were purified using GeneClean (manufactured by Bio101). […]
That is, the plasmid pUC18-B1 was cleaved with restriction enzymes EcoRI and SmaI (20 units each) at 37° C. for 2 hours and subjected to agarose electrophoresis, and only a 0.6 kb-fragment was cut and purified using GeneClean. […] The nucleotide sequence was determined by custom DNA sequencing service (Hokkaido System Science Co., Ltd.).

[5] = system: Escherichia coli transformed with pUC18-B2; test: Growth on M9 agar medium containing bialaphos; format: cell-based; details: 1 mM IPTG, 10 mg/L bialaphos
Experimental: That is, the plasmid pUC18-B1 was cleaved with restriction enzymes EcoRI and SmaI (20 units each) at 37° C. for 2 hours and subjected to agarose electrophoresis, and only a 0.6 kb-fragment was cut and purified using GeneClean. On the other hand, 2 μg of the plasmid pUC18 was cleaved with EcoRI and SmaI (20 units each) at 37° C. for 2 hours, and the fragments were purified using GeneClean (manufactured by Bio101). The DNA fragments were allowed to react using Takara Ligation kit at 16° C. for 3 hours, to thereby yield a solution of the plasmid pUC18-B2 obtained by integrating the about 0.6-kb EcoRI, SmaI-cleaved DNA fragment derived from pBRB1 into the EcoRI, SmaI-cleaved DNA fragment of the plasmid pUC18. […] The nucleotide sequence was determined by custom DNA sequencing service (Hokkaido System Science Co., Ltd.).

[6] = system: Streptomyces lividans introduced with hybrid plasmid pBRB1; test: Bialaphos resistance of transformants; format: cell-based; details: all transformants with pBRB1
Experimental: The hybrid plasmid mixture thus obtained was used to transform a protoplast of Streptomyces lividans. The protoplast was regenerated, and then transformed strains having a bialaphos resistance were selected on a selective medium containing 10 mg/L bialaphos. The Streptomyces lividans used above as a host is a bacterial strain obtained by removing a plasmid pIJ703 from Streptomyces lividans 3131 by protoplastization and regeneration. Streptomyces lividans 3131 was obtained from Department of Antibiotics, National Institute of Health in 1985 (“The Journal of Antibiotics” 1985, vol. 38, pp. 390-400). […]
From the resultant two bialaphos-resistant strains, plasmids were extracted in accordance with a known method (“Current Topics in Microbiology and Immunology” 1982, vol. 96, pp. 69). […] These plasmids derived from the two strains were separately cleaved with a restriction enzyme BglII and analyzed by agarose electrophoresis. In both cases, the electrophoresis detected not only the DNA fragment of pIJ703 used in the vector but also an about 5.7-kb DNA fragment. […]

Compound	Km [2] [µM]	Km [3] [µM]	further results
enzyme capable of acetylating PPT derived from Streptomyces hygroscopicus (pUC19-SH) (Streptomyces hygroscopicus)			Km [1]: 90 µM
CS(=O)(=O)CC[C@H](N)C(=O)O [MS, methionine sulfone]	13000	2200	
CP(=O)(O)CC[C@H](N)C(=O)O (racemic) [PPT, phosphinothricin]	2460	14300	
C[C@H](NC(=O)[C@H](C)NC(=O)[C@@H](N)CCP(C)(=O)O)C(=O)O [bialaphos]			growth on medium containing bialaphos [4]: found to grow; growth on medium containing bialaphos [5]: found to grow; resistance of transformants to bialaphos [6]: all the resultant transformants were found to have a resistance to bialaphos
